Measurements: ChEMBL document CHEMBL2429775, “The cytotoxicity of 8-O-4' neolignans from the seeds of Crataegus pinnatifida” (Bioorg Med Chem Lett, 2013)

How the values were obtained:
[1] = tested on: MRC5; test: Growth inhibition against human MRC5 cells after 48 hrs by MTT assay; format: cell-based; conditions: for IC50: Homo sapiens, MRC5, 48 h; for growth inhibition (GI): human, mrc5, 48 h
[2] = tested on: HeLa; test: Growth inhibition against human HeLa cells after 48 hrs by MTT assay; format: functional, cell-based
[3] = tested on: MCF7; test: Growth inhibition against human MCF7 cells after 48 hrs by MTT assay; format: functional, cell-based; conditions: for IC50: MCF7, 48 h
[4] = tested on: HepG2; test: Growth inhibition against human HepG2 cells after 48 hrs by MTT assay; format: functional, cell-based; conditions: for IC50: HepG2, 48 h
[5] = tested on: A549; test: Growth inhibition against human A549 cells after 48 hrs by MTT assay; format: functional, cell-based; conditions: for IC50: A549, 48 h
[6] = tested on: HCT-116; test: Growth inhibition against human HCT116 cells after 48 hrs by MTT assay; format: functional, cell-based; conditions: for IC50: HCT-116, 48 h
[7] = (§1) Growth inhibition against human A375-S2 cells after 48 hrs by MTT assay; format: functional, cell-based; conditions: A375-S2, 48 h
[8] = tested on: A375-S2; test: as §1; format: functional, cell-based
[9] = tested on: K562; test: Growth inhibition against human K562 cells after 48 hrs by MTT assay; format: functional, cell-based; conditions: for IC50: K562, 48 h
[10] = tested on: HT-1080; test: Growth inhibition against human HT1080 cells after 48 hrs by MTT assay; format: functional, cell-based; conditions: for IC50: HT-1080, 48 h
[11] = tested on: HL-60; test: Growth inhibition against human HL60 cells after 48 hrs by MTT assay; format: functional, cell-based; conditions: for IC50: HL-60, 48 h
[12] = tested on: U-937; test: Growth inhibition against human U937 cells after 48 hrs by MTT assay; format: functional, cell-based; conditions: for IC50: U-937, 48 h

SMILES | IC50 [1] | growth inhibition (GI) [1] | IC50 [2] | growth inhibition (GI) [2] | growth inhibition (GI) [3] | IC50 [3] | growth inhibition (GI) [4] | IC50 [4] | growth inhibition (GI) [5] | IC50 [5] | growth inhibition (GI) [6] | IC50 [6] | IC50 [7] | growth inhibition (GI) [8] | growth inhibition (GI) [9] | IC50 [9] | growth inhibition (GI) [10] | growth inhibition (GI) [11] | IC50 [11] | growth inhibition (GI) [12] | further results
COc1cc([C@@H](O)[C@@H](CO)Oc2ccc(C=O)cc2OC)ccc1O | > 50 µM | Dose-dependent effect | > 50 µM | Dose-dependent effect | Dose-dependent effect | > 50 µM | Dose-dependent effect | > 50 µM | Dose-dependent effect | > 50 µM | Dose-dependent effect | > 50 µM | > 50 µM | Dose-dependent effect | Dose-dependent effect | > 50 µM | Dose-dependent effect | Dose-dependent effect | > 50 µM | Dose-dependent effect | IC50 [10]: > 50 µM; IC50 [12]: 32.2 µM
COc1cc([C@H](O)[C@@H](CO)Oc2ccc(/C=C/C=O)cc2OC)ccc1O | > 50 µM | Dose-dependent effect | > 50 µM | Dose-dependent effect | Dose-dependent effect | > 50 µM | Dose-dependent effect | 38.5 µM | Dose-dependent effect | 33.6 µM | Dose-dependent effect | 32.5 µM | 36.4 µM | Dose-dependent effect | Dose-dependent effect | > 50 µM | Dose-dependent effect | Dose-dependent effect | 36.6 µM | Dose-dependent effect | IC50 [10]: 35.2 µM; IC50 [12]: > 50 µM
COC/C=C/c1ccc(O[C@H](CO)[C@H](OC)c2ccc(O)c(OC)c2)c(OC)c1 | > 50 µM | Dose-dependent effect | > 50 µM | Dose-dependent effect | Dose-dependent effect | > 50 µM | Dose-dependent effect | > 50 µM | Dose-dependent effect | > 50 µM | Dose-dependent effect | 36 µM | > 50 µM | Dose-dependent effect | Dose-dependent effect | > 50 µM | Dose-dependent effect | Dose-dependent effect | 27.4 µM | Dose-dependent effect | IC50 [10]: 36.4 µM; IC50 [12]: > 50 µM
O=c1[nH]cc(F)c(=O)[nH]1 [FLUOROURACIL] |  |  |  | Dose-dependent effect | Dose-dependent effect |  | Dose-dependent effect |  | Dose-dependent effect |  | Dose-dependent effect |  |  | Dose-dependent effect | Dose-dependent effect |  | Dose-dependent effect | Dose-dependent effect | 10.1 µM | Dose-dependent effect | 
COc1cc([C@@H](O)[C@@H](CO)Oc2ccc(/C=C/C=O)cc2OC)ccc1O | > 50 µM | Dose-dependent effect | > 50 µM | Dose-dependent effect | Dose-dependent effect | > 50 µM | Dose-dependent effect | 38.6 µM | Dose-dependent effect | 25.5 µM | Dose-dependent effect | 27.3 µM | 34.2 µM | Dose-dependent effect | Dose-dependent effect | > 50 µM | Dose-dependent effect | Dose-dependent effect | 33.5 µM | Dose-dependent effect | IC50 [10]: 33 µM; IC50 [12]: > 50 µM
COc1cc([C@@H](OC)[C@@H](CO)Oc2ccc(/C=C/C=O)cc2OC)ccc1O | > 50 µM | Dose-dependent effect | > 50 µM | Dose-dependent effect | Dose-dependent effect | > 50 µM | Dose-dependent effect | 40 µM | Dose-dependent effect | > 50 µM | Dose-dependent effect | 26.4 µM | > 50 µM | Dose-dependent effect | Dose-dependent effect | > 50 µM | Dose-dependent effect | Dose-dependent effect | 25.5 µM | Dose-dependent effect | IC50 [10]: 31.9 µM; IC50 [12]: 2.71 µM
COc1cc([C@H](O)[C@@H](CO)Oc2ccc(C=O)cc2OC)ccc1O | > 50 µM | Dose-dependent effect | > 50 µM | Dose-dependent effect | Dose-dependent effect | > 50 µM | Dose-dependent effect | > 50 µM | Dose-dependent effect | > 50 µM | Dose-dependent effect | > 50 µM | > 50 µM | Dose-dependent effect | Dose-dependent effect | > 50 µM | Dose-dependent effect | Dose-dependent effect | > 50 µM | Dose-dependent effect | IC50 [10]: > 50 µM; IC50 [12]: 39.1 µM
